Data: US12630547B2, “RAS protein degraders, pharmaceutical compositions thereof, and their therapeutic applications” (BioTheryX, Inc., priority 2019, dated 2026)

How the values were obtained:
Format in all cases: cell-based
MOLM-13 cells = experiment: Cell viability assay (CELLTITER-GLO), MOLM-13 cells; details: Homo sapiens, MOLM-13, 72 h; Table 2; compound at 10 μM, 3 days; read-out: Effect on MOLM-13 cell viability (% DMSO)
Procedure, shortened: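 Viability, as % of DMSO control, was read by CellTiter-Glo luminescence after a 3-day compound exposure (single dose of 10 μM or 1 μM) at 37 °C. Cells plated at 4,000/well in RPMI 1640 with 10% FBS. Results reported as categories A <10%, B 10–<25%, C 25–<50%, D ≥50%.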

H358 cells = experiment: Cell viability assay (CELLTITER-GLO), H358 cells; details: Table 4; 3 days
Procedure, shortened: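 Luminescent ATP read-out (CellTiter-Glo) after 3-day incubation at 37 °C of H358 cells plated at 4,000/well in RPMI 1640 with 10% FBS. Values are either IC50 bins (A ≤1 μM through D >10 μM) or % of DMSO viability at 10 μM or 1 μM, bins A <10% through D ≥50%.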

H23 cells = experiment: Cell viability assay (CELLTITER-GLO), H23 cells; details: Table 4; 3 days
Procedure, shortened: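 Luminescent CellTiter-Glo readout after 3-day compound treatment (37° C, 5% CO2) of H23 cells plated at 4,000 cells/well in RPMI 1640 plus 10% FBS, DMSO as control. IC50 values given as categorical ranges.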

SMILES | Inhibition of H358 cells, IC50 (class) (H358 cells) | viability at 10 µM (MOLM-13 cells) | Inhibition of H23 cells, IC50 (class) (H23 cells)
C=C(Cl)C(=O)N1CCN(c2nc(=O)n(-c3ccccc3C(C)C)c3nc(-c4c(F)cccc4OCCCCCCCN4CCC(c5cc(F)cc6c5CN(C5CCC(=O)NC5=O)C6=O)CC4)c(F)cc23)[C@@H](C)C1 (stereo partly drawn) [Compound 100, 3-(4-(1-(7-(2-(4-((S)-4-(2-Chloroacryloyl)-2-methylpiperazin-1-yl)-6-fluoro-1-(2-isopropylphenyl)-2-oxo-1,2-dihydropyrido[2,3-d]pyrimidin-7-yl)-3-fluorophenoxy)heptyl)piperidin-4-yl)-6-fluoro-1-oxoisoindolin-2-yl)piperidine-2,6-dione] | A′ | < 10% | A′
C=C(Cl)C(=O)N1CCN(c2ncnc3c(F)c(-c4c(F)cccc4OCCOCc4ccc(COCCN5CCC(c6cc(F)cc7c6CN(C6CCC(=O)NC6=O)C7=O)CC5)cc4)c(Cl)cc23)CC1 (stereo not drawn) [Compound 101, 3-(4-(1-(2-((4-((2-(2-(6-Chloro-4-(4-(2-chloroacryloyl)piperazin-1-yl)-8-fluoroquinazolin-7-yl)-3-fluorophenoxy)ethoxy)methyl)benzyl)oxy)ethyl)piperidin-4-yl)-6-fluoro-1-oxoisoindolin-2-yl)piperidine-2,6-dione] | A′ | < 10% | A′
C=C(Cl)C(=O)N1CCN(c2ncnc3c(F)c(-c4c(F)cccc4OCCCCCCCN4CCC(c5cc(F)cc6c5CN(C5CCC(=O)NC5=O)C6=O)CC4)c(Cl)cc23)C[C@H]1CC#N (stereo partly drawn) [Compound 102, 2-((2R)-4-(6-Chloro-7-(2-((7-(4-(2-(2,6-dioxopiperidin-3-yl)-6-fluoro-1-oxoisoindolin-4-yl)piperidin-1-yl)heptyl)oxy)-6-fluorophenyl)-8-fluoroquinazolin-4-yl)-1-(2-chloroacryloyl)-piperazin-2-yl)acetonitrile] | A′ | < 10% | A′
C=C(Cl)C(=O)N1CCN(c2ncnc3c(F)c(-c4c(F)cccc4OCCCCCN4CCC(c5cc(F)cc6c5CN(C5CCC(=O)NC5=O)C6=O)CC4)c(Cl)cc23)CC1 (stereo not drawn) [Compound 103, 3-(4-(1-(5-(2-(6-Chloro-4-(4-(2-chloroacryloyl)piperazin-1-yl)-8-fluoroquinazolin-7-yl)-3-fluorophenoxy)pentyl)piperidin-4-yl)-6-fluoro-1-oxoisoindolin-2-yl)piperidine-2,6-dione] | A′ | < 10% | A′
C=C(Cl)C(=O)N1C[C@@H]2C(=O)N(C)c3cnc4c(F)c(-c5c(F)cccc5OCCCCCCCN5CCC(c6cc(F)cc7c6CN(C6CCC(=O)NC6=O)C7=O)CC5)c(Cl)cc4c3N2C[C@H]1C (stereo partly drawn) [Compound 104, 3-(4-(1-(7-(2-((2R,4aR)-11-Chloro-3-(2-chloroacryloyl)-9-fluoro-2,6-dimethyl-5-oxo-2,3,4,4a,5,6-hexahydro-1H-pyrazino[1′,2′:4,5]pyrazino[2,3-c]quinolin-10-yl)-3-fluorophenoxy)-heptyl)piperidin-4-yl)-6-fluoro-1-oxoisoindolin-2-yl)piperidine-2,6-dione] | B′ | < 10% | B′
C=C(Cl)C(=O)N1CCN(c2ncnc3cc(-c4c(F)cccc4OCCCCCCCN4CCC(c5cccc6c5CN(C5CCC(=O)NC5=O)C6=O)CC4)c(Cl)cc23)CC1 (stereo not drawn) [Compound 105, 3-(4-(1-(7-(2-(6-Chloro-4-(4-(2-chloroacryloyl)piperazin-1-yl)quinazolin-7-yl)-3-fluorophenoxy)heptyl)piperidin-4-yl)-1-oxoisoindolin-2-yl)piperidine-2,6-dione] | A′ | < 10% | A′

The next lines start with results.

Inhibition of H358 cells, IC50 (class) (H358 cells) | SMILES | viability at 10 µM (MOLM-13 cells) | Inhibition of H23 cells, IC50 (class) (H23 cells)
A′ | C=C(Cl)C(=O)N1CCN(c2ncnc3c(F)c(-c4c(F)cccc4OCCCCCCCN4CCC(c5cc6c(cc5F)C(=O)N(C5CCC(=O)NC5=O)C6)CC4)c(Cl)cc23)CC1 (stereo not drawn) [Compound 107, 3-(5-(1-(7-(2-(6-Chloro-4-(4-(2-chloroacryloyl)piperazin-1-yl)-8-fluoroquinazolin-7-yl)-3-fluorophenoxy)heptyl)piperidin-4-yl)-6-fluoro-1-oxoisoindolin-2-yl)piperidine-2,6-dione] | < 10% | A′
A′ | C=C(Cl)C(=O)N1CCN(c2nc(OC[C@@H]3CCCN3C)nc3c(F)c(-c4c(F)cccc4OCCCCCCCN4CCC(c5cc(F)cc6c5CN(C5CCC(=O)NC5=O)C6=O)CC4)c(Cl)cc23)CC1 (stereo partly drawn) [Compound 108, 3-(4-(1-(7-(2-(6-Chloro-4-(4-(2-chloroacryloyl)piperazin-1-yl)-8-fluoro-2-(((S)-1-methylpyrrolidin-2-yl)methoxy)quinazolin-7-yl)-3-fluorophenoxy)heptyl)piperidin-4-yl)-6-fluoro-1-oxoisoindolin-2-yl)piperidine-2,6-dione] | < 10% | A′
B′ | CCC(=O)N1CCN(c2ncnc3c(F)c(-c4c(F)cccc4OCCOCc4ccc(COCCN5CCC(c6cc(F)cc7c6CN(C6CCC(=O)NC6=O)C7=O)CC5)cc4)c(Cl)cc23)CC1 (stereo not drawn) [Compound 109, 3-(4-(1-(2-((4-((2-(2-(6-Chloro-8-fluoro-4-(4-propionylpiperazin-1-yl)quinazolin-7-yl)-3-fluorophenoxy)ethoxy)methyl)benzyl)oxy)ethyl)piperidin-4-yl)-6-fluoro-1-oxoisoindolin-2-yl)piperidine-2,6-dione] | < 10% | B′
B′ | C=C(Cl)C(=O)N1CCN(c2ncnc3c(F)c(-c4c(F)cccc4OCCC4CCC(CCN5CCC(c6cc(F)cc7c6CN(C6CCC(=O)NC6=O)C7=O)CC5)CC4)c(Cl)cc23)CC1 (stereo not drawn) [Compound 110, 3-(4-(1-(2-(4-(2-(2-(6-Chloro-4-(4-(2-chloroacryloyl)piperazin-1-yl)-8-fluoroquinazolin-7-yl)-3-fluorophenoxy)ethyl)cyclohexyl)ethyl)piperidin-4-yl)-6-fluoro-1-oxoisoindolin-2-yl)piperidine-2,6-dione] | < 10% | A′
B′ | C=C(Cl)C(=O)N1CCN(c2ncnc3c(F)c(-c4c(F)cccc4OCCc4ccc(CCN5CCC(c6cc(F)cc7c6CN(C6CCC(=O)NC6=O)C7=O)CC5)cc4)c(Cl)cc23)CC1 (stereo not drawn) [Compound 111, 3-(4-(1-(4-(2-(2-(6-Chloro-4-(4-(2-chloroacryloyl)piperazin-1-yl)-8-fluoroquinazolin-7-yl)-3-fluorophenoxy)ethyl)phenethyl)piperidin-4-yl)-6-fluoro-1-oxoisoindolin-2-yl)piperidine-2,6-dione] | < 10% | A′
B′ | C=C(Cl)C(=O)N1CCN(c2ncnc3c(F)c(-c4c(F)cccc4OCCCCCCCN4CCC(c5cc(F)cc6c5CN(C5CCC(=O)NC5=O)C6=O)C4)c(Cl)cc23)CC1 (stereo not drawn) [Compound 112, 3-(4-(1-(7-(2-(6-Chloro-4-(4-(2-chloroacryloyl)piperazin-1-yl)-8-fluoroquinazolin-7-yl)-3-fluorophenoxy)heptyl)pyrrolidin-3-yl)-6-fluoro-1-oxoisoindolin-2-yl)piperidine-2,6-dione] | < 10% | A′
